{"source": "patent US20230391841A1", "about": "“MACROCYCLIC PEPTIDES” (Herantis Pharma OYJ, priority 2019, published 2023)", "key": {"[1]": {"system": "3D in vitro model of blood-brain barrier", "assay": "Permeation in a 3D in vitro model of blood-brain barrier", "type": "in vitro ADME, human endothelial cells, rat astrocytes and cortical neurons", "conditions": "500 nM, 2 h", "procedure": "Due to the interest of developing CDNF- and MANF-derived peptides for treatment of CNS diseases with peripheral route of administration, and the fact that macrocyclization can improve cell-penetration and distribution properties of peptides, the ability of the compounds to pass the blood-brain barrier was tested in an established in vitro model of the blood-brain barrier. For this purpose, macrocyclic and linear compounds were incubated at 500 nM for 2 h in a two-compartment in vitro blood-brain barrier model (n=4) followed by sample collection is and LC-MS/MS analysis.\nPrimary culture of astrocytes. Rat astrocytes were prepared from a E15 embryos. Briefly, pregnant female rats (Wistar, Janvier Labs) of 15 days of gestation were deeply anesthetized in a (CO2 chamber) and then killed by cervical dislocation. Fetuses were collected and immediately placed in ice-cold L15 Leibovitz medium with a 2% penicillin (10,000 U/mL) and streptomycin (10 mg/mL) solution (PS) and 1% bovine serum albumin (BSA). Full brains were treated for 20 min at 37° C. with a trypsin- EDTA solution at a final concentration of 0.05% trypsin and 0.02% EDTA. Dissociated cells were cultured in DMEM 10% fetal calf serum. Purified astrocytes were used at passage 4 (P4).\nCulture of human endothelial cells. A vial of HBMEC (Primary Human Brain Microvascular Endothelial Cells, ACBRI 376) was used at a specific passage 8 (P8).\nPrimary culture of cortical neurons. Rat cortical neurons were cultured as described by Callizot et al., 2013 with modification. Briefly, pregnant female rats (Wistar, Janvier Labs) of […] were deeply anesthetized in a CO2 chamber and then killed by cervical io dislocation. Fetuses were collected and immediately placed in ice-cold L15 Leibovitz medium with a 2% penicillin (10,000 U/mL) and streptomycin (10 mg/mL) solution (PS) and 1% bovine serum albumin (BSA). Cortices were treated for 20 min at 37° C. with a trypsin-EDTA solution at a final concentration of 0.05% trypsin and 0.02% EDTA. The dissociation was stopped by addition of Dulbecco's modified Eagle's medium (DMEM) with 4.5 g/L of glucose, containing is DNAse I grade II (final concentration 0.5 mg/m L) and 10% fetal calf serum (FCS). Cells were mechanically dissociated by three forced passages through the tip of a 10-m1 pipette. Cells were then centrifuged at 515×g for 10 min at 4° C. The pellet resuspended in a defined culture medium consisting of Neurobasal medium with a 2% solution of B27 supplement, 2 mmol/L of L-glutamine, 2% of PS solution, 10 ng/mL of brain-derived neurotrophic factor (BDNF). Viable cells were counted in a Neubauer cytometer, using the trypan blue exclusion test. The cortical neurons were seeded in the bottom of well pre-coated with poly-L-lysine at a density of 255,000 per well in 24-well plate with insert and cultured at 37° C. in an air (95%)-CO2 (5%) incubator. The culture medium was changed every other day.\nCo-Culture of endothelial cells, astrocytes and primary cortical neurons. The procedure was performed as previously published (Xue et al., 2013 with modifications, Callizot et al., 2017). Briefly, on day 0, purified astrocytes (P4) were rapidly thawed in a water bath at 37° C. The cells were immediately put in DMEM containing 10% of FCS. Cell suspension was centrifuged at 515×g for 5 min at 4° C. and the pellets were suspended in DMEM F12 containing 10% of FCS. Cells were seeded in the outer side of the insert membrane (PET, 1 μm) at the density of 45,000 cells per insert and cultured at 37° C. in an air (95%)-CO2 (5%) incubator. Thirty-six (36) hours after the astrocytes seeding, HBMEC (P8) were rapidly thawed in a water bath at 37° C. and immediately put in DMEM containing 10% of FCS. Cell suspension was centrifuged at 515×g for 5 min at 4° C. and the pellets were suspended in EGM-2 bullet kit containing 5% of FCS, 1% of PS solution, 1.4 μM of Hydrocortisone, 5 μg/mL of acid ascorbic, 1% of lipid mixture, 10 mM of HEPES, 1 ng/mL of bFGF. […]"}, "rat hepatocytes": {"system": "rat hepatocytes", "assay": "In vitro metabolic stability in rat hepatocytes", "type": "in vitro ADME", "conditions": "1 μM, 37° C., up to 60 min", "procedure": "The linear or macrocyclic compounds 1-14 and 23-26 (SEQ ID NOs: […]) were incubated in concentration 1 μM with pooled cryopreserved rat hepatocytes (Sprague-Dawley, male; 400 pl, 1.0 million viable cells/ml for compounds 1-8, 11-12 and 23-26 or 100 μl, 0.1 million viable cells/ml for compounds 9-10 and 13-14) for different time points (0, 10, 20, 40 or 60 min) at 37° C. The cell density and viability were determined by trypan blue exclusion method. The incubation was terminated by acetonitrile. The collected samples were centrifuged for 20 min at 2272×g and analyzed. The samples were analyzed is by UHPLC/PDA with high resolution mass spectrometry (QE-Orbitrap-MS on DDI mode) (compounds 1-8, 11-12 and 23-26) or HHPLC-ToF mass spectrometry (for compounds 9-and 13-14) to monitor disappearance of the compound. Verapramil 1 μM was used as a disappearance rate control. The analytical method was optimized by using the parent compounds for optimum chromatographic properties (peak shape and retention) and mass spectrometric ionization. The Ion chromatograms were extracted from the total ion chromatograms using calculated monoisotopic accurate masses with 5 mDa window. Disappearance was based on LC/MS peak areas, marking 0 min as 100%. The first-order rate constants k (min-1) of the metabolism were obtained from the slope of time versus logarithm (% of remaining compound) plot using Excel software. The in vitro half-life (t1/2) of study compound is defined as: t1/2In2/k. Calculated half-life is based on compound disappearance in rat liver hepatocytes."}, "human hepatocytes": {"system": "human hepatocytes", "assay": "In vitro metabolic stability in human hepatocytes", "type": "in vitro ADME", "conditions": "1 μM, 37° C., up to 60 min", "procedure": "The linear or macrocyclic compounds 1-8, 11-14 and 23-26 (SEQ ID NOs: 1-8, 11-14 and 23-26) were incubated in concentration 1 μM with pooled cryopreserved human hepatocytes (mixed gender; 400 pl, 1.0 million viable cells/ml) for different time points (0, 20, 40 or 60 min) at 37° C. The cell density and viability were determined by trypan blue is exclusion method. The incubation was terminated by acetonitrile. The collected samples were centrifuged for 20 min at 2272×g and analyzed. The samples were analyzed by UPLC/PDA with high resolution mass spectrometry (QE-Orbitrap-MS on DDI mode) to monitor disappearance of the compound. Verapramil 1 μM was used as a disappearance rate control. The analytical method was optimized by using the parent compounds for optimum chromatographic properties (peak shape and retention) and mass spectrometric ionization. The Ion chromatograms were extracted from the total ion chromatograms using calculated monoisotopic accurate masses with 5 mDa window. Disappearance was based on LC/MS peak areas, marking 0 min as 100%. The first-order rate constants k (min-1) of the metabolism were obtained from the slope of time versus logarithm (% of remaining compound) plot using Excel software. The in vitro half-life (t1/2) of study compound is defined as: t1/2In2/k. Calculated half-life is based on compound disappearance in human liver hepatocytes."}, "[2]": {"assay": "In vitro metabolic stability in rat plasma", "type": "in vitro ADME", "conditions": "1 μM, 37° C., up to 120 min", "procedure": "The linear and macrocyclic compounds 1-14 and 23-26 (SEQ ID NOs: 1-14 and 23-26) were incubated in concentration 1 μM with rat plasma (Sprague-Dawley, male; 400 μl) for different time points (0, 20, 40, 60 or 120 min) at 37° C. The incubation was terminated by acetonitrile. The collected samples were centrifuged for 20 min at 2272×g and analyzed. io Stock solutions were prepared using 50% DMSO, and the compounds were spiked 1/100 to incubation to have final DMSO content of 0.5%. The samples were analyzed by UHPLC/PDA with high resolution mass spectrometry (QE-Orbitrap-MS on DDI mode) to monitor disappearance of the compound. Enalapril 1 μM was used as a disappearance rate control. For analysis of compounds 9, 10, 13 and 14 stock solutions were prepared with PBS, and samples were analyzed by UHPLC-ToF mass spectrometry. The analytical method was optimized by using the parent compounds for optimum chromatographic properties (peak shape and retention) and mass spectrometric ionization. The ion chromatograms were extracted from the total ion chromatograms using calculated monoisotopic accurate masses with 5 mDa window. Disappearance was based on LC/MS peak areas, marking 0 min as 100%.\nThe first-order rate constants k (min-1) of the metabolism were obtained from the slope of time versus logarithm (% of remaining compound) plot using Excel software. The in vitro half-life (t1/2) of study compound is defined as: t1/2=In2/k. Calculated half-life is based on compound disappearance from rat plasma."}}, "note": "Bridge positions count the residues as written; N and C are the ends. Peptide text beside a SMILES is read from it.", "data": [{"smiles": "CC[C@H](C)[C@@H]1NC(=O)[C@H](CCCCN)NC(=O)[C@H](CCCCN)NC(=O)[C@H](CC(C)C)NC(=O)[C@H](CCC(=O)O)NC(=O)[C@H](CCCCN)NC(=O)[C@H](C(C)C)NC(=O)[C@H](CCCNC(=N)N)NC(=O)[C@H](CC(C)C)NC(=O)[C@H](CCCCN)NC(=O)[C@H](CCCCN)NC(=O)[C@H](CC(C)C)NC(=O)[C@H](CC(=O)O)NC(=O)[C@H](C(C)C)NC(=O)[C@H](CCC(=O)O)NC(=O)[C@H](C)NC(=O)[C@@H]2CSSC[C@H](NC(=O)[C@H]([C@@H](C)O)NC(=O)[C@H](CCC(=O)O)NC(=O)CNC(=O)[C@H](Cc3c[nH]c4ccccc34)NC(=O)[C@H](CC(=O)O)NC(=O)[C@H](CC(=O)O)NC(=O)[C@H](CC(C)C)NC1=O)C(=O)N[C@@H](CCCCN)C(=O)NCC(=O)N2", "note": "[Compound 4] (cyclo(AEVDLKKLRVKELKKILDDWGETCKGC); disulfide 24-27)", "values": [{"measurement": "ability to pass through the in vitro blood-brain barrier as compared to linear counterpart", "setting": "[1]", "result": "improved ability to pass"}, {"measurement": "stability in rat hepatocytes as compared to linear counterpart", "setting": "rat hepatocytes", "result": "significantly improved stability"}, {"measurement": "stability in human hepatocytes as compared to linear counterpart", "setting": "human hepatocytes", "result": "significantly improved stability"}, {"measurement": "stability in rat plasma as compared to linear counterpart", "setting": "[2]", "result": "improved stability"}]}]}
